As usually defined, the EC50 is the concentration needed to bring the measured effect to its halfway point. Read a high EC50 as lower potency in that assay.

This is an account of results in patent US8822413B2, “Bifunctional hormone having alpha-MSH activity and natriuretic peptide activity and uses thereof” (Theratechnologies Inc., priority 2007, dated 2014).

Bridge positions count the residues as written; N and C are the ends. Square brackets hold non-standard residues; d marks the D form. Peptide text beside a SMILES is read from it.

One assay addresses T1, ANP receptor (Sus scrofa, UniProt F1SFW3).
T1 construct: ANP receptor-expressing LLC-PK1 cells; endogenous in cells; host or cells: LLC-PK1 cells
T1 sequence (F1SFW3 29-1057): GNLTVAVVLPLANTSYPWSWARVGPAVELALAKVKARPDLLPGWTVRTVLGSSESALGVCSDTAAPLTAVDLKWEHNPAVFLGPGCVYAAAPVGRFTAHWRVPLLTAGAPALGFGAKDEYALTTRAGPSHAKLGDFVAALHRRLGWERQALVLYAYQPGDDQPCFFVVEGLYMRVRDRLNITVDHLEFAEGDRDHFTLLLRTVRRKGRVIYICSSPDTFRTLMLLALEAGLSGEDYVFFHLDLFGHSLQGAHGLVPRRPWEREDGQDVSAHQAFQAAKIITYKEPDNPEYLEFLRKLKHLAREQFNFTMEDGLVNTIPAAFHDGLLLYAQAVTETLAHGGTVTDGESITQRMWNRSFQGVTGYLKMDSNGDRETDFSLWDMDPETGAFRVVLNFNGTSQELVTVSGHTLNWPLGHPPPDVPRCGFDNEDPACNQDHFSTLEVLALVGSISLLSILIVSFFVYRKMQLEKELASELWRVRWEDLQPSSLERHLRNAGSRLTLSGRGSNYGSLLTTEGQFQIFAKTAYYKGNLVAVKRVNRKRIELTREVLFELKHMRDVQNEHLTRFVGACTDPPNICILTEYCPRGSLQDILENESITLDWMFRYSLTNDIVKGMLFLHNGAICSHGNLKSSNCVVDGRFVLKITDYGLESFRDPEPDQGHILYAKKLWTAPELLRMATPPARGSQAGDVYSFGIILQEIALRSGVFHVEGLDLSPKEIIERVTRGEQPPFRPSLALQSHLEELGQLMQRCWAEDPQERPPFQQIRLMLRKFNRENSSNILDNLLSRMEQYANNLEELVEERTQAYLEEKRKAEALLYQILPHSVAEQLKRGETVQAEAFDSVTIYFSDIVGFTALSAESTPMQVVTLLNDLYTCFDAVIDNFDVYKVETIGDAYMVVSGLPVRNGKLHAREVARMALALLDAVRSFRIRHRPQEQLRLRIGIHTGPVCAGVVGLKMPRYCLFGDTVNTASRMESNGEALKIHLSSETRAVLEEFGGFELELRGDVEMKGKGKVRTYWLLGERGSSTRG
The assay can be described thus: cGMP production in ANP receptor-expressing LLC-PK1 cells. The assay is classed as cell-based. To be noted: 30 min stimulation, 10^-6M through 10^-12M. The protocol:
The bifunctional hormone was tested on ANP receptor-expressing LLC-PK1 cells and on MCR1 receptor-expressing B16-F1 cells. Both cell types were cultured 24 hours before the stimulation, in 96-well plates, at a concentration of 1.0×10^5 cells/ml. Before stimulation, cells were starved 2 hours in DPBS only and incubated 10 min in assay buffer (DPBS containing 20 mM HEPES, 0.1% BSA and 500 μM IBMX). The dose response curve of the bifunctional hormone was done for 30 minutes with concentrations of 10^−6M through 10^−12M. Supernatant was collected and cAMP (B16-F1) or cGMP (LLC-PK1) was measured with a radiolabeled kit from GE Healthcare Company.

A further assay deals with normal men. To be noted: infusion in normal men; cited from earlier work.

Consider `CC[C@H](C)[C@@H]1NC(=O)[C@H](CCCNC(=N)N)NC(=O)[C@H](CC(=O)O)NC(=O)[C@H](CCSC)NC(=O)[C@H](CCCNC(=N)N)NC(=O)CNC(=O)CNC(=O)[C@H](Cc2ccccc2)NC(=O)[C@@H](NC(=O)[C@H](CO)NC(=O)[C@H](CO)NC(=O)[C@H](CCCNC(=N)N)NC(=O)[C@H](CCCNC(=N)N)NC(=O)[C@H](CC(C)C)NC(=O)[C@@H](N)CO)CSSC[C@@H](C(=O)N[C@@H](CC(N)=O)C(=O)N[C@@H](CO)C(=O)N[C@@H](Cc2ccccc2)C(=O)N[C@@H](CCCNC(=N)N)C(=O)N[C@@H](Cc2ccc(O)cc2)C(=O)N[C@@H](Cc2c[nH]cn2)C(=O)N[C@H](Cc2ccccc2)C(=O)N[C@@H](CCCNC(=N)N)C(=O)N[C@@H](Cc2c[nH]c3ccccc23)C(N)=O)NC(=O)CNC(=O)[C@H](CC(C)C)NC(=O)CNC(=O)[C@H](CO)NC(=O)[C@H](CCC(N)=O)NC(=O)[C@H](C)NC(=O)CNC1=O` [SEQ ID NO: 40, S-L-R-R-S-S-[C-F-G-G-R-M-D-R-I-G-A-Q-S-G-L-G-C]-N-S-F-R-Y-H-f-R-W-NH2], for which, at ANP receptor, the response was half-maximal at 7000 nM (EC50).

With `CC[C@H](C)[C@@H]1NC(=O)[C@H](CCCNC(=N)N)NC(=O)[C@H](CC(=O)O)NC(=O)[C@H](CCSC)NC(=O)[C@H](CCCNC(=N)N)NC(=O)CNC(=O)CNC(=O)[C@H](Cc2ccccc2)NC(=O)[C@@H](NC(=O)[C@H](CO)NC(=O)[C@H](CO)NC(=O)[C@H](CCCNC(=N)N)NC(=O)[C@H](CCCNC(=N)N)NC(=O)CNC(=O)[C@H](Cc2c[nH]c3ccccc23)NC(=O)[C@H](CCCNC(=N)N)NC(=O)[C@H](Cc2ccccc2)NC(=O)[C@H](Cc2c[nH]cn2)NC(=O)[C@H](CCC(=O)O)NC(C)=O)CSSC[C@@H](C(=O)N[C@@H](CC(N)=O)C(=O)N[C@@H](CO)C(=O)N[C@@H](Cc2ccccc2)C(=O)N[C@@H](CCCNC(=N)N)C(=O)N[C@@H](Cc2ccc(O)cc2)C(N)=O)NC(=O)CNC(=O)[C@H](CC(C)C)NC(=O)CNC(=O)[C@H](CO)NC(=O)[C@H](CCC(N)=O)NC(=O)[C@H](C)NC(=O)CNC1=O` [SEQ ID NO: 41, Ac-E-H-F-R-W-G-R-R-S-S-[C-F-G-G-R-M-D-R-I-G-A-Q-S-G-L-G-C]-N-S-F-R-Y-NH2] (Ac-EHFRWGRRSSCFGGRMDRIGAQSGLGCNSFRY-NH2; disulfide 11-27), the midpoint of the response at ANP receptor (NR = No response detected), the EC50, lay at 8.9 nM. This lies in the single-digit nanomolar range.

In turn, `CC[C@H](C)[C@@H]1NC(=O)[C@H](CCCNC(=N)N)NC(=O)[C@H](CC(=O)O)NC(=O)[C@H](CCSC)NC(=O)[C@H](CCCNC(=N)N)NC(=O)CNC(=O)CNC(=O)[C@H](Cc2ccccc2)NC(=O)[C@@H](NC(=O)[C@H](CO)NC(=O)[C@H](CO)NC(=O)[C@H](CCCNC(=N)N)NC(=O)[C@H](CCCNC(=N)N)NC(=O)CNC(=O)[C@H](Cc2c[nH]c3ccccc23)NC(=O)[C@H](CCCNC(=N)N)NC(=O)[C@@H](Cc2ccccc2)NC(=O)[C@H](Cc2c[nH]cn2)NC(=O)[C@H](CCC(=O)O)NC(C)=O)CSSC[C@@H](C(=O)N[C@@H](CC(N)=O)C(=O)N[C@@H](CO)C(=O)N[C@@H](Cc2ccccc2)C(=O)N[C@@H](CCCNC(=N)N)C(=O)N[C@@H](Cc2ccc(O)cc2)C(N)=O)NC(=O)CNC(=O)[C@H](CC(C)C)NC(=O)CNC(=O)[C@H](CO)NC(=O)[C@H](CCC(N)=O)NC(=O)[C@H](C)NC(=O)CNC1=O` [SEQ ID NO: 42, Ac-E-H-f-R-W-G-R-R-S-S-[C-F-G-G-R-M-D-R-I-G-A-Q-S-G-L-G-C]-N-S-F-R-Y-NH2] (Ac-EH[dF]RWGRRSSCFGGRMDRIGAQSGLGCNSFRY-NH2; disulfide 11-27) returned an EC50 at ANP receptor (NR = No response detected) of 502 nM.

In turn, `CC[C@H](C)[C@@H]1NC(=O)[C@H](CCCNC(=N)N)NC(=O)[C@H](CC(=O)O)NC(=O)[C@H](CCSC)NC(=O)[C@H](CCCNC(=N)N)NC(=O)CNC(=O)CNC(=O)[C@H](Cc2ccccc2)NC(=O)[C@@H](NC(=O)[C@H](CCSC)NC(=O)[C@@H]2CCCN2C(=O)[C@H](CCCCN)NC(=O)CNC(=O)[C@H](Cc2c[nH]c3ccccc23)NC(=O)[C@H](CCCNC(=N)N)NC(=O)[C@H](Cc2c[nH]cn2)NC(C)=O)CSSC[C@@H](C(=O)N[C@@H](CC(N)=O)C(=O)N[C@@H](CO)C(=O)N[C@@H](Cc2ccccc2)C(=O)N[C@@H](CCCNC(=N)N)C(=O)N[C@@H](Cc2ccc(O)cc2)C(N)=O)NC(=O)CNC(=O)[C@H](CC(C)C)NC(=O)CNC(=O)[C@H](CO)NC(=O)[C@H](CCC(N)=O)NC(=O)[C@H](C)NC(=O)CNC1=O` [SEQ ID NO: 43, Ac-H-R-W-G-K-P-M-[C-F-G-G-R-M-D-R-I-G-A-Q-S-G-L-G-C]-N-S-F-R-Y-NH2] (Ac-HRWGKPMCFGGRMDRIGAQSGLGCNSFRY-NH2; disulfide 8-24) came in with a 50% effective concentration (EC50) at ANP receptor (NR = No response detected) of 86.8 nM. Compared with the last compound, the EC50 is about 5.8-fold lower.

Take “S-P-K-M-V-Q-G-S-G-[C-P-G-R-K-M-D-R-I-S-S-S-S-G-L-G-C]-K-V-L-R-R-H [BNP]”: in the assay on normal men, the “increase in sodium excretion” value was 2 fold; the “reduction in plasma renin, angiotensin II and aldosterone secretion” value is reported as 50%.
